According to ChEMBL document CHEMBL1201862, “PubChem BioAssay data set” (2004):
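A five-concentration, 48-hour dose response in 96-well plates underlies each endpoint, interpolated linearly between surrounding concentrations. At the GI50, growth is halved.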 Calls of active or inactive are those of the source. Cut-off read from the data, not from the text of the source: active = GI50 up to about 1.1 µM and inactive = higher.

Legend:
Assay in all cases: NCI anticancer screen, dose series, 48 h
HCT-15 = tested on: HCT-15
SF-539 = tested on: SF-539
U-251 = tested on: U-251
TK-10 = tested on: TK-10
RPMI-8226 = tested on: RPMI-8226
NCI/ADR-RES = tested on: NCI/ADR-RES
MDA-MB-231 = tested on: MDA-MB-231
HL-60 = tested on: HL-60
UACC-62 = tested on: UACC-62
SNB-19 = tested on: SNB-19
NCI-H23 = tested on: NCI-H23
SN12C = tested on: SN12C
SF-295 = tested on: SF-295
SW-620 = tested on: SW-620
HCT-116 = tested on: HCT-116
SR = tested on: SR
NCI-H460 = tested on: NCI-H460
PC-3 = tested on: PC-3
COLO 205 = tested on: COLO 205
MOLT-4 = tested on: MOLT-4
HT-29 = tested on: HT-29
A549 = tested on: A549
LOX IMVI = tested on: LOX IMVI
MDA-N = tested on: MDA-N
MDA-MB-435 = tested on: MDA-MB-435
SK-MEL-5 = tested on: SK-MEL-5
BT-549 = tested on: BT-549
SK-MEL-2 = tested on: SK-MEL-2
CAKI-1 = tested on: CAKI-1
M14 = tested on: M14
OVCAR-8 = tested on: OVCAR-8
DU-145 = tested on: DU-145
K562 = tested on: K562
HOP-92 = tested on: HOP-92
SNB-75 = tested on: SNB-75
UO-31 = tested on: UO-31
T47D = tested on: T47D
OVCAR-4 = tested on: OVCAR-4
CCRF-CEM = tested on: CCRF-CEM
RXF 393 = tested on: RXF 393
UACC-257 = tested on: UACC-257
OVCAR-3 = tested on: OVCAR-3
IGROV-1 = tested on: IGROV-1
MCF7 = tested on: MCF7
SK-OV-3 = tested on: SK-OV-3
EKVX = tested on: EKVX
OVCAR-5 = tested on: OVCAR-5
786-0 = tested on: 786-0
KM12 = tested on: KM12
HCC 2998 = tested on: HCC 2998
NCI-H226 = tested on: NCI-H226
Hs-578T = tested on: Hs-578T
Malme-3M = tested on: Malme-3M
SK-MEL-28 = tested on: SK-MEL-28
SF-268 = tested on: SF-268
ACHN = tested on: ACHN
HOP-62 = tested on: HOP-62
NCI-H522 = tested on: NCI-H522
A498 = tested on: A498

For CC(C)NC(=O)OCCN=c1c2ccccc2ccc2ccccc12, the GI50 (HCT-15) was 38.7 µM, the GI50 (SF-539) was 53.2 µM (inactive) and the GI50 (U-251) was 38.3 µM (inactive). The GI50 (TK-10) was 50.7 µM (inactive), the GI50 (RPMI-8226) was > 10 µM (inactive) and the GI50 (NCI/ADR-RES) was 32.6 µM (inactive). For the same compound, the GI50 (MDA-MB-231) was 32.1 µM (inactive), the GI50 (HL-60) was 15.8 µM (inactive) and the GI50 (UACC-62) was 31.4 µM (inactive). For the same compound, the GI50 (SNB-19) was 24.4 µM (inactive), the GI50 (NCI-H23) was > 100 µM (inactive) and the GI50 (SN12C) was 34.8 µM (inactive). The GI50 (SF-295) was 38.2 µM (inactive), the GI50 (SW-620) was 64.1 µM (inactive) and the GI50 (HCT-116) was 34.7 µM (inactive). The GI50 (SR) was 24.8 µM (inactive), the GI50 (NCI-H460) was 45.6 µM (inactive) and the GI50 (PC-3) was 23.8 µM (inactive). For the same compound, the GI50 (COLO 205) was 27.7 µM (inactive), the GI50 (MOLT-4) was 24.4 µM (inactive) and the GI50 (HT-29) was 39.2 µM (inactive). The GI50 (A549) was 29.3 µM (inactive), the GI50 (LOX IMVI) was 44.9 µM (inactive) and the GI50 (MDA-N) was 40.6 µM (inactive). For the same compound, the GI50 (MDA-MB-435) was 46.6 µM (inactive), the GI50 (SK-MEL-5) was 17.6 µM (inactive) and the GI50 (BT-549) was 49.4 µM (inactive). The GI50 (SK-MEL-2) was 23.7 µM (inactive), the GI50 (CAKI-1) was 35.9 µM (inactive) and the GI50 (M14) was 36 µM (inactive). For the same compound, the GI50 (OVCAR-8) was 57.1 µM (inactive), the GI50 (DU-145) was 56.2 µM (inactive) and the GI50 (K562) was 25 µM (inactive). The GI50 (HOP-92) was 27.2 µM (inactive), the GI50 (SNB-75) was 62.5 µM (inactive) and the GI50 (UO-31) was 23.5 µM (inactive). The GI50 (T47D) was 15.6 µM (inactive), the GI50 (OVCAR-4) was 33.9 µM (inactive) and the GI50 (CCRF-CEM) was 21 µM (inactive). For the same compound, the GI50 (RXF 393) was 36.8 µM (inactive), the GI50 (UACC-257) was 42.6 µM (inactive) and the GI50 (OVCAR-3) was 34.4 µM (inactive). For the same compound, the GI50 (IGROV-1) was 47.5 µM (inactive), the GI50 (MCF7) was 44.9 µM (inactive) and the GI50 (SK-OV-3) was 47.6 µM (inactive). The GI50 (EKVX) was 35 µM (inactive), the GI50 (OVCAR-5) was 88.9 µM (inactive) and the GI50 (786-0) was 59.4 µM (inactive). For the same compound, the GI50 (KM12) was 44.7 µM (inactive), the GI50 (HCC 2998) was 40 µM (inactive) and the GI50 (NCI-H226) was 30.4 µM (inactive). For the same compound, the GI50 (Hs-578T) was 35.2 µM (inactive), the GI50 (Malme-3M) was 46.1 µM (inactive) and the GI50 (SK-MEL-28) was 32.4 µM (inactive). The GI50 (SF-268) was 63.7 µM (inactive), the GI50 (ACHN) was 43.1 µM (inactive) and the GI50 (HOP-62) was 41.9 µM (inactive).

In the case of N#CCC(=O)N/N=C\C(O)C(O)C(O)C(O)CO (stereo not given), the GI50 (HCT-15) is reported as over 100 µM, the GI50 (SF-539) is reported as > 100 µM (inactive) and the GI50 (TK-10) is reported as > 100 µM (inactive). The GI50 (RPMI-8226) was > 100 µM (inactive), the GI50 (NCI/ADR-RES) was > 100 µM (inactive) and the GI50 (NCI-H522) was > 100 µM (inactive). The GI50 (MDA-MB-231) was > 100 µM (inactive), the GI50 (HL-60) was > 100 µM (inactive) and the GI50 (UACC-62) was > 100 µM (inactive). For the same compound, the GI50 (SNB-19) was > 100 µM (inactive), the GI50 (NCI-H23) was > 100 µM (inactive) and the GI50 (SN12C) was > 100 µM (inactive). The GI50 (SF-295) was > 100 µM (inactive), the GI50 (SW-620) was > 100 µM (inactive) and the GI50 (SR) was > 100 µM (inactive). For the same compound, the GI50 (NCI-H460) was > 100 µM (inactive), the GI50 (PC-3) was > 100 µM (inactive) and the GI50 (MOLT-4) was > 100 µM (inactive). The GI50 (HT-29) was > 100 µM (inactive), the GI50 (A549) was > 100 µM (inactive) and the GI50 (LOX IMVI) was > 100 µM (inactive). For the same compound, the GI50 (MDA-N) was > 100 µM (inactive), the GI50 (MDA-MB-435) was > 100 µM (inactive) and the GI50 (A498) was > 100 µM (inactive). The GI50 (SK-MEL-5) was > 100 µM (inactive), the GI50 (BT-549) was > 100 µM (inactive) and the GI50 (SK-MEL-2) was > 100 µM (inactive). The GI50 (CAKI-1) was > 100 µM (inactive), the GI50 (M14) was > 100 µM (inactive) and the GI50 (OVCAR-8) was > 100 µM (inactive). For the same compound, the GI50 (DU-145) was > 100 µM (inactive), the GI50 (K562) was > 100 µM (inactive) and the GI50 (SNB-75) was > 100 µM (inactive). The GI50 (UO-31) was > 100 µM (inactive), the GI50 (T47D) was > 100 µM (inactive) and the GI50 (CCRF-CEM) was > 100 µM (inactive). For the same compound, the GI50 (RXF 393) was > 100 µM (inactive), the GI50 (UACC-257) was > 100 µM (inactive) and the GI50 (OVCAR-3) was > 100 µM (inactive). The GI50 (IGROV-1) was > 100 µM (inactive), the GI50 (MCF7) was > 100 µM (inactive) and the GI50 (SK-OV-3) was > 100 µM (inactive). The GI50 (OVCAR-5) was > 100 µM (inactive), the GI50 (786-0) was > 100 µM (inactive) and the GI50 (KM12) was > 100 µM (inactive). For the same compound, the GI50 (HCC 2998) was > 100 µM (inactive), the GI50 (NCI-H226) was > 100 µM (inactive) and the GI50 (Hs-578T) was > 100 µM (inactive). For the same compound, the GI50 (Malme-3M) was > 100 µM (inactive), the GI50 (SK-MEL-28) was > 100 µM (inactive) and the GI50 (SF-268) was > 100 µM (inactive). The GI50 (ACHN) was > 100 µM (inactive) and the GI50 (HOP-62) was > 100 µM (inactive).
